Source: ChEMBL document CHEMBL3045838, “Synthesis, antimicrobial and antioxidant activities of 2-[1-{3,5-diaryl-4,5-dihydro-1H-pyrazolenyl}]-4-(4-nitrophenyl)-[1,3]-thiazoles” (2013)
≈ marks a conversion by molar mass, not a printed value.

Legend:
Format in all cases: functional
[1] = system: Staphylococcus aureus; assay: Antibacterial activity against Staphylococcus aureus ATCC 25923 assessed as growth inhibition at 1.56 to 25 ug/mL
[2] = system: Talaromyces marneffei; assay: Antifungal activity against Talaromyces marneffei assessed as growth inhibition at 1.56 to 25 ug/mL
[3] = system: Klebsiella pneumoniae; assay: Antibacterial activity against Klebsiella pneumoniae assessed as growth inhibition by serial plate dilution method
[4] = system: Aspergillus fumigatus; assay: Antifungal activity against Aspergillus fumigatus NCIM 902 assessed as growth inhibition at 1.56 to 25 ug/mL
[5] = system: Klebsiella pneumoniae; assay: Antibacterial activity against Klebsiella pneumoniae assessed as growth inhibition at 1.56 to 25 ug/mL
[6] = system: Escherichia coli; assay: Antibacterial activity against Escherichia coli ATCC 25922 assessed as growth inhibition at 1.56 to 25 ug/mL
[7] = system: Pseudomonas aeruginosa; assay: Antibacterial activity against Pseudomonas aeruginosa ATCC 27853 assessed as growth inhibition by serial plate dilution method
[8] = system: Aspergillus flavus; assay: Antifungal activity against Aspergillus flavus NCIM 524 assessed as growth inhibition at 1.56 to 25 ug/mL
[9] = system: Escherichia coli; assay: microbe, parasite or virus in culture; settings: ATCC 25922
Description: Antibacterial activity against Escherichia coli ATCC 25922 assessed as growth inhibition by serial plate dilution method

[10] = system: Talaromyces marneffei; assay: Antifungal activity against Talaromyces marneffei assessed as growth inhibition by serial plate dilution method
[11] = system: Trichophyton mentagrophytes; assay: Antifungal activity against Trichophyton mentagrophytes assessed as growth inhibition by serial plate dilution method
[12] = system: Radical scavenging activity; assay: Antioxidant activity assessed as inhibition of DPPH radical generation at 4000 ug/mL after 15 min by UV-Vis spectrophotometric analysis relative to control; settings: at 4000 µg/mL
[13] = system: Aspergillus fumigatus; assay: Antifungal activity against Aspergillus fumigatus NCIM 902 assessed as growth inhibition by serial plate dilution method
[14] = system: Staphylococcus aureus; assay: Antibacterial activity against Staphylococcus aureus ATCC 25923 assessed as growth inhibition by serial plate dilution method
[15] = system: Aspergillus flavus; assay: Antifungal activity against Aspergillus flavus NCIM 524 assessed as growth inhibition by serial plate dilution method
[16] = system: Pseudomonas aeruginosa; assay: Antibacterial activity against Pseudomonas aeruginosa ATCC 27853 assessed as growth inhibition at 1.56 to 25 ug/mL
[17] = system: Trichophyton mentagrophytes; assay: Antifungal activity against Trichophyton mentagrophytes assessed as growth inhibition at 1.56 to 25 ug/mL

Structure (SMILES)	diameter of the inhibition zone (DIZ) [1] [mm]	diameter of the inhibition zone (DIZ) [2] [mm]	MIC [3] [µg/mL]	diameter of the inhibition zone (DIZ) [4] [mm]	diameter of the inhibition zone (DIZ) [5] [mm]	diameter of the inhibition zone (DIZ) [6] [mm]	MIC [7] [µg/mL]	diameter of the inhibition zone (DIZ) [8] [mm]	MIC [9] [µg/mL]	MIC [10] [µg/mL]	MIC [11] [µg/mL]	inhibition [12] [%]	MIC [13] [µg/mL]	MIC [14] [µg/mL]	MIC [15] [µg/mL]	diameter of the inhibition zone (DIZ) [16] [mm]	diameter of the inhibition zone (DIZ) [17] [mm]
COc1ccc(C2=NN(c3nc(-c4ccc([N+](=O)[O-])cc4)cs3)C(c3ccc(-c4ccc([N+](=O)[O-])cc4)o3)C2)cc1OC (stereo not drawn)	16	16	6.25 (≈ 10.5 µM)	16	16	16	6.25 (≈ 10.5 µM)	16	6.25 (≈ 10.5 µM)	6.25 (≈ 10.5 µM)	6.25 (≈ 10.5 µM)	62	6.25 (≈ 10.5 µM)	6.25 (≈ 10.5 µM)	6.25 (≈ 10.5 µM)	16	16
CCC(C)n1ncn(-c2ccc(N3CCN(c4ccc(OCC5COC(Cn6cncn6)(c6ccc(Cl)cc6Cl)O5)cc4)CC3)cc2)c1=O (stereo not drawn) [ITRACONAZOLE]		25		30				22		6.25 (≈ 8.86 µM)	6.25 (≈ 8.86 µM)		6.25 (≈ 8.86 µM)		1.56 (≈ 2.21 µM)		23
COc1ccc(C2=NN(c3nc(-c4ccc([N+](=O)[O-])cc4)cs3)C(c3ccc(SC)cc3)C2)cc1OC (stereo not drawn)	< 10	< 10	25 (≈ 46.9 µM)	< 10	< 10	< 10	25 (≈ 46.9 µM)	< 10	25 (≈ 46.9 µM)	25 (≈ 46.9 µM)	25 (≈ 46.9 µM)	86	25 (≈ 46.9 µM)	25 (≈ 46.9 µM)	25 (≈ 46.9 µM)	< 10	< 10
COc1ccc(C2=NN(c3nc(-c4ccc([N+](=O)[O-])cc4)cs3)C(c3ccc(SC)cc3)C2)cc1 (stereo not drawn)	< 10	< 10	25 (≈ 49.7 µM)	< 10	< 10	< 10	25 (≈ 49.7 µM)	< 10	25 (≈ 49.7 µM)	25 (≈ 49.7 µM)	25 (≈ 49.7 µM)	79	25 (≈ 49.7 µM)	25 (≈ 49.7 µM)	25 (≈ 49.7 µM)	< 10	< 10
COc1ccc(C2=NN(c3nc(-c4ccc([N+](=O)[O-])cc4)cs3)C(c3ccc(-c4c(C)cccc4[N+](=O)[O-])o3)C2)cc1OC (stereo not drawn)	11	11	12.5 (≈ 20.4 µM)	11	11	11	12.5 (≈ 20.4 µM)	11	12.5 (≈ 20.4 µM)	12.5 (≈ 20.4 µM)	12.5 (≈ 20.4 µM)	66	12.5 (≈ 20.4 µM)	12.5 (≈ 20.4 µM)	12.5 (≈ 20.4 µM)	11	11
CSc1ccc(C2CC(c3ccc([N+](=O)[O-])cc3)=NN2c2nc(-c3ccc([N+](=O)[O-])cc3)cs2)cc1 (stereo not drawn)	< 10	< 10	25 (≈ 48.3 µM)	< 10	< 10	< 10	25 (≈ 48.3 µM)	< 10	25 (≈ 48.3 µM)	25 (≈ 48.3 µM)	25 (≈ 48.3 µM)	75	25 (≈ 48.3 µM)	25 (≈ 48.3 µM)	25 (≈ 48.3 µM)	< 10	< 10
